# From patent US20220016060A1, “USE OF SODIUM 2-(3-PENTYLPHENYL)ACETATE IN THE TREATMENT OF ALSTRÖM SYNDROME” (LIMINAL BIOSCIENCES LIMITED, priority 2018, published 2022)
# Where “and” joins values, the source holds several entries; their conditions need not be identical. Equal entries are not always repeated. Entries after “also recorded” stand apart in the source; their conditions may differ.
# Assays:
# [1] = test system: ALMS patients; experiment: Liver stiffness by transient elastography (FibroScan) and Metavir score, Phase 2 open-label study; type: in vivo, human; details: for Change from Baseline Transient Elastography, Mean (SD) / Change from Baseline Transient Elastography, Median / Transient Elastography Score / Metavir Score (F): 800 mg daily oral
# Protocol: The study was a Phase 2, single-centre, single-arm, open-label study of sodium 2-(3-pentylphenyl)acetate administered at a total daily oral dose of 800 mg for up to 72 weeks in subjects with ALMS was undertaken. The initial duration of the study was 24 weeks, and subjects were offered to enrol into an extension phase of 36 or 48 weeks. The schedule of study procedures for the enrolment, intervention, and assessments for participants is outlined in FIG. 1. Sodium 2-(3-pentylphenyl)acetate was formulated in soft gelatine capsules containing 200 mg of Sodium 2-(3-pentylphenyl)acetate (amorphous powder) per capsule, polyethylene glycol 400, National Formulary (NF), hydrochloric acid (for pH adjustment), and water. A total of 15 subjects participated in the study. […] Twelve (12) subjects met the eligibility criteria and received at least 1 dose of 800 mg sodium 2-(3-pentylphenyl)acetate, with all 12 subjects completing the initial 24-week treatment period as planned. A 36-week EP was added to the study protocol (Table 1). Ten (10) of the 12 subjects who completed the initial 24-week study drug treatment period continued in the EP, with 6 subjects having a break in treatment until the amendment was implemented before continuing treatment in the EP and 4 subjects continuing in the EP without any break in treatment. Two subjects (826-001-002 and 826-001-014) completed the study after the initial 24-week study drug treatment period. The effect of sodium 2-(3-pentylphenyl)acetate on liver histology in ALMS patients was first assessed by measuring liver stiffness. Liver stiffness is a physical parameter that reflects the health of the liver and is commonly used to diagnose liver diseases. Increased liver stiffness may be associated with hepatic dysfunction.
# [2] = test system: ALMS patients; experiment: Non-Alcoholic Fatty Liver Disease (NAFLD) Fibrosis Score; type: in vivo, human; details: for Change from Baseline NAFLD Score with an FPG > 5.6 mmol/L, Mean (SD) / Change from Baseline NAFLD Score with an FPG > 5.6 mmol/L, Median: 800 mg daily oral
# Protocol: The study was a Phase 2, single-centre, single-arm, open-label study of sodium 2-(3-pentylphenyl)acetate administered at a total daily oral dose of 800 mg for up to 72 weeks in subjects with ALMS was undertaken. The initial duration of the study was 24 weeks, and subjects were offered to enrol into an extension phase of […]. The schedule of study procedures for the enrolment, intervention, and assessments for participants is outlined in FIG. 1. Sodium 2-(3-pentylphenyl)acetate was formulated in soft gelatine capsules containing 200 mg of Sodium 2-(3-pentylphenyl)acetate (amorphous powder) per capsule, polyethylene glycol 400, National Formulary (NF), hydrochloric acid (for pH adjustment), and water. The effect of sodium 2-(3-pentylphenyl)acetate on liver histology in ALMS patients was also assessed by measuring the Non-Alcoholic Fatty Liver Disease (NAFLD) Fibrosis Score. Increased NAFLD fibrosis score may be associated with hepatic dysfunction.
# [3] = individual subjects, EP Week 12 (Week 36)
# [4] = individual subjects, EP Week 24 (Week 48)
# [5] = individual subjects, EP Week 36 (Week 60)
structure (smiles),measurement,setting,value
CCCCCc1cccc(CC(=O)[O-])c1.[Na+] [sodium 2-(3-pentylphenyl)acetate],subjects in whom liver stiffness decreased from baseline,"[1]; 8/11 subjects, after treatment with 800 mg",72.3%
same,"Change from Baseline Transient Elastography, Mean (SD)","[1]; EP Week 12 (Week 36), N=10",−1.41 (2.585) kPa
same,"Change from Baseline Transient Elastography, Median","[1]; EP Week 12 (Week 36), N=10",−1.75 kPa
same,"Change from Baseline Transient Elastography, Mean (SD)","[1]; EP Week 24 (Week 48), N=10",−1.49 (2.335) kPa
same,"Change from Baseline Transient Elastography, Median","[1]; EP Week 24 (Week 48), N=10",−1.45 kPa
same,"Change from Baseline Transient Elastography, Mean (SD)","[1]; EP Week 36 (Week 60), N=9",−2.59 (2.703) kPa
same,"Change from Baseline Transient Elastography, Median","[1]; EP Week 36 (Week 60), N=9",−2.30 kPa
same,largest increase in liver stiffness from baseline,"[1]; Subject 826-001-013, 30-day break in treatment",1.8 kPa
same,Metavir score at Week 60,"[1]; Subject 826-001-015, baseline F4",F0/1 (Metavir score F0-F1: absence or mild fibrosis (2.5-7.0 kPa on FibroScan ®))
same,number of subjects with at least a 1-grade reduction in liver fibrosis (Metavir scoring system),"[1]; Subjects 826-001-001, -004, -012, -015",4 subjects
same,"Change from Baseline Transient Elastography, Mean (SD)","[1]; Week 12, N=11",−1.19 (2.160) kPa
same,"Change from Baseline Transient Elastography, Median","[1]; Week 12, N=11",−1.50 kPa
same,"Change from Baseline Transient Elastography, Mean (SD)","[1]; Week 24, N=11",−1.01 (2.308) kPa
same,"Change from Baseline Transient Elastography, Median","[1]; Week 24, N=11",−0.70 kPa
same,decrease in liver stiffness from baseline (mean),"[1]; after 60 weeks of treatment, p=0.0207",2.59 kPa
same,Transient Elastography Score,"[1]; individual subjects (one line per subject), Week 12",7.1 kPa and 6.1 kPa and 4.5 kPa and 5.3 kPa and 3.1 kPa and 10.5 kPa and 19.6 kPa and 7.8 kPa and 12.2 kPa and 12.0 kPa and 50.5 kPa and 7.7 kPa
same,Metavir Score (F),[1]; [3],(F0/1) (Metavir score F0-F1: absence or mild fibrosis (2.5-7.0 kPa on FibroScan ®)); also recorded: (F2) (Metavir score F2: significant fibrosis ≥ 7.1 to < 9.5 kPa on FibroScan ®)); also recorded: (F4) (Metavir score F4: cirrhosis( ≥ 12.5 kPa on FibroScan ®)); also recorded: (F3) (Metavir score F3: severe fibrosis ≥ 9.5 to < 12.5 kPa on FibroScan ®)
same,Transient Elastography Score,[1]; [3],6.6 kPa and 4.2 kPa and 6.5 kPa and 4.6 kPa and 8.9 kPa and 18.6 kPa and 5.8 kPa and 10.2 kPa and 14.7 kPa and 7.4 kPa
same,Metavir Score (F),[1]; [4],(F2) (Metavir score F2: significant fibrosis ≥ 7.1 to < 9.5 kPa on FibroScan ®)); also recorded: (F0/1) (Metavir score F0-F1: absence or mild fibrosis (2.5-7.0 kPa on FibroScan ®)); also recorded: (F4) (Metavir score F4: cirrhosis( ≥ 12.5 kPa on FibroScan ®)); also recorded: (F3) (Metavir score F3: severe fibrosis ≥ 9.5 to < 12.5 kPa on FibroScan ®)
same,Transient Elastography Score,[1]; [4],7.1 kPa and 4.1 kPa and 4.7 kPa and 5.1 kPa and 7.5 kPa and 21.6 kPa and 5.0 kPa and 12.1 kPa and 12.6 kPa and 6.9 kPa
same,Metavir Score (F),[1]; [5],(F2) (Metavir score F2: significant fibrosis ≥ 7.1 to < 9.5 kPa on FibroScan ®)); also recorded: (F0/1) (Metavir score F0-F1: absence or mild fibrosis (2.5-7.0 kPa on FibroScan ®)); also recorded: (F4) (Metavir score F4: cirrhosis( ≥ 12.5 kPa on FibroScan ®)); also recorded: (F3) (Metavir score F3: severe fibrosis ≥ 9.5 to < 12.5 kPa on FibroScan ®)
same,Transient Elastography Score,[1]; [5],7.8 kPa and 3.8 kPa and 5.0 kPa and 3.9 kPa and 17.1 kPa and 6.0 kPa and 8.6 kPa and 12.2 kPa and 5.1 kPa
same,Metavir Score (F),"[1]; individual subjects, Week 12",(F2) (Metavir score F2: significant fibrosis ≥ 7.1 to < 9.5 kPa on FibroScan ®)); also recorded: (F0/1) (Metavir score F0-F1: absence or mild fibrosis (2.5-7.0 kPa on FibroScan ®)); also recorded: (F3) (Metavir score F3: severe fibrosis ≥ 9.5 to < 12.5 kPa on FibroScan ®); also recorded: (F4) (Metavir score F4: cirrhosis( ≥ 12.5 kPa on FibroScan ®))
same,Metavir Score (F),"[1]; individual subjects, Week 24",(F2) (Metavir score F2: significant fibrosis ≥ 7.1 to < 9.5 kPa on FibroScan ®)); also recorded: (F0/1) (Metavir score F0-F1: absence or mild fibrosis (2.5-7.0 kPa on FibroScan ®)); also recorded: (F4) (Metavir score F4: cirrhosis( ≥ 12.5 kPa on FibroScan ®))
same,Transient Elastography Score,"[1]; individual subjects, Week 24",7.2 kPa and 7.6 kPa and 5.9 kPa and 5.2 kPa and 4.6 kPa and 8.1 kPa and 21.8 kPa and 5.6 kPa and 8.6 kPa and 14.3 kPa and 48.9 kPa and 9.0 kPa
same,subjects in whom NAFLD fibrosis score decreased or did not change from baseline,[2]; 7/12 subjects,58.3%
same,"Change from Baseline NAFLD Score with an FPG > 5.6 mmol/L, Mean (SD)","[2]; EP Week 12 (Week 36), N=10",−0.39 (0.683)
same,"Change from Baseline NAFLD Score with an FPG > 5.6 mmol/L, Median","[2]; EP Week 12 (Week 36), N=10",−0.69
same,"Change from Baseline NAFLD Score with an FPG > 5.6 mmol/L, Mean (SD)","[2]; EP Week 24 (Week 48), N=9",−0.34 (0.758)
same,"Change from Baseline NAFLD Score with an FPG > 5.6 mmol/L, Median","[2]; EP Week 24 (Week 48), N=9",−0.28
same,"Change from Baseline NAFLD Score with an FPG > 5.6 mmol/L, Mean (SD)","[2]; EP Week 36 (Week 60), N=9",−0.16 (0.684)
same,"Change from Baseline NAFLD Score with an FPG > 5.6 mmol/L, Median","[2]; EP Week 36 (Week 60), N=9",−0.14
same,increase in NAFLD fibrosis score from baseline,"[2]; Subject 826-001-001, 204-day break in treatment",0.7
